The record followed here is ChEMBL document CHEMBL4184159, “Delphinidin inhibits BDNF-induced migration and invasion in SKOV3 ovarian cancer cells” (2017).

Assay [1] addresses RAC-alpha serine/threonine-protein kinase (Homo sapiens) (UniProt P31749). Description: Inhibition of BDNF-induced AKT phosphorylation in human SKOV3 cells after 24 hrs by Western blot analysis. It counts as cell-based. On the technique in general: A western blot detects proteins with antibodies after separation by electrophoresis.
Assay [2] deals with SK-OV-3. Description: Antimigratory activity against human SKOV3 cells assessed as inhibition of BDNF-induced cell migration at 20 uM after 24 hrs by scratch wound healing assay. It counts as functional, cell-based.
Assay [3] deals with SK-OV-3. Description: Inhibition of BDNF-induced invasion in human SKOV3 cells at 20 uM after 24 hrs in by matrigel invasion assay. It is filed as functional, cell-based.
The species entered for assay [4] is Homo sapiens. Description: Inhibition of BDNF-induced NFkappaB nuclear translocation in human SKOV3 cells at 50 to 75 uM after 24 hrs by Western blot analysis. It is filed as cell-based.
The test system of assay [5] is SK-OV-3. Description: Antiproliferative activity against human SKOV3 cells at 75 uM after 24 hrs by CCK-8 assay. It counts as functional. A general note: Tetrazolium dyes change colour on reduction, which living cells bring about.
Assay [6] has as its system SK-OV-3. Description: Antiproliferative activity against human SKOV3 cells at 200 uM after 24 hrs by CCK-8 assay. It counts as functional, cell-based.
Assay [7] relates to SK-OV-3. Description: Antiproliferative activity against human SKOV3 cells at 50 uM after 24 hrs by CCK-8 assay. It is filed as functional.
For assay [8], the system named is SK-OV-3. Description: Antiproliferative activity against human SKOV3 cells at 5 uM after 24 hrs by CCK-8 assay. It is filed as functional.
Assay [9] deals with SK-OV-3. Description: Downregulation of BDNF-induced MMP9 mRNA expression in human SKOV3 cells after 24 hrs by qRT-PCR analysis. It is filed as functional, cell-based.
The subject of assay [10] is SK-OV-3. The assay is described as follows: Downregulation of BDNF-induced MMP2 mRNA expression in human SKOV3 cells after 24 hrs by qRT-PCR analysis. It is filed as functional, cell-based. In general terms: Quantitative PCR measures a nucleic acid by following its amplification.
Assay [11] concerns SK-OV-3. The assay is described as follows: Antiproliferative activity against human SKOV3 cells at 100 uM after 24 hrs by CCK-8 assay. It counts as functional, cell-based.
For assay [12], the system named is SK-OV-3. The assay is described as follows: Inhibition of BDNF-induced invasion in human SKOV3 cells after 24 hrs in by matrigel invasion assay. It counts as functional, cell-based.
Assay [13] deals with SK-OV-3. Description: Antimigratory activity against human SKOV3 cells assessed as inhibition of BDNF-induced cell migration after 24 hrs by scratch wound healing assay. It counts as functional, cell-based.
The subject of assay [14] is SK-OV-3. The assay is described as follows: Antiproliferative activity against human SKOV3 cells at 10 uM after 24 hrs by CCK-8 assay. It is filed as functional.

SMILES strings stand for the structures. The source made the active and inactive calls. The rule behind the calls is not given here.

Chain of RAC-alpha serine/threonine-protein kinase (Homo sapiens) (P31749 whole entry): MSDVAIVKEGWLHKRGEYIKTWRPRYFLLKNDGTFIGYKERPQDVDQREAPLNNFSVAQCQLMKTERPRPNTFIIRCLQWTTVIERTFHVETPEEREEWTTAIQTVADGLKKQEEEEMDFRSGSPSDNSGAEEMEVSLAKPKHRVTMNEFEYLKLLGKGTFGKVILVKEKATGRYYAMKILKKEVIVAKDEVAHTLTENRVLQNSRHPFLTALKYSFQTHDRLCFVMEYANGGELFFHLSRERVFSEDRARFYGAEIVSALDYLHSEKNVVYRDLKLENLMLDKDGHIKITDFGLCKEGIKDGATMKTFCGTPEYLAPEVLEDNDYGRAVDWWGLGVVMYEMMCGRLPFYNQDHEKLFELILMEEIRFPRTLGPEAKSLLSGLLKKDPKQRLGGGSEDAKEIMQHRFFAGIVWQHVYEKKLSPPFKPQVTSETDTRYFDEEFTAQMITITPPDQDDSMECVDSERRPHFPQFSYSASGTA

As to `O=c1cc(N2CCOCC2)oc2c(-c3ccccc3)cccc12`, the inhibition result in assay [1] was “Dose-dependent effect”. The inhibition entry in [2] and in [3] was “Active” each time.

`Oc1cc(O)c2cc(O)c(-c3cc(O)c(O)c(O)c3)[o+]c2c1.[Cl-]` [DELPHINIDIN CHLORIDE]: the inhibition entry in assay [4] was “Active”. For the same compound, the inhibition entry in assay [1] and in [12] was “Dose-dependent effect” in each case. Moreover, the Activity in assay [5] is over 98%; in [7] it was over 98%; in assay [8], over 98%; in [9], “Dose-dependent effect”; in [10], “Dose-dependent effect”; in assay [13], “Dose-dependent effect”. Also, in assay [14], the Activity is reported as over 98%. The outcome in [6] and in [11] was Active.
